In ChEMBL document CHEMBL5034038, “Zanamivir-Cholesterol Conjugate: A Long-Acting Neuraminidase Inhibitor with Potent Efficacy against Drug-Resistant Influenza Viruses” (J Med Chem, 2021) one finds EC50, Activity and IC50 data, which are given here for six molecules.

Test [1] relates to Influenza A virus. Nature of the test: Antiviral activity against Influenza A virus (A/California/07/2009 (H1NI)) harboring NA H275Y mutant infected in dog MDCK cells assessed as reduction in virus replication incubated for 72 hrs by CCK8 assay. In kind it is functional, organism-based, A/California/07/2009(H1N1).
Test [2] concerns Influenza A virus. Nature of the test: Protection against Influenza A virus (A/California/07/2009 (H1NI)) harboring NA H275Y mutant infected in Balb/c mouse at 8.4 uM/kg, IV administered once daily for 7 days starting from 24 hrs post to viral infection. Format: functional, A/Puerto Rico/8/1934(H1N1).
For test [3], the system named is Influenza A virus. Nature of the test: Antiviral activity against Influenza A virus (A/Moscow/10/99 (H3N2)) harboring NA E119V mutant infected in dog MDCK cells assessed as reduction in virus replication incubated for 72 hrs by CCK8 assay. Format: functional, organism-based. A general note: Tetrazolium assays rely on reduction of a dye to a coloured formazan, in cell work by metabolically active cells.

Test [4] is described as follows: Inhibition of Influenza A virus (A/California/07/2009 (H1N1)) neuraminidase N1 H275Y mutant using MUNANA as substrate preincubated for 30 mins followed by substrate addition by fluorescence method.
Test [5] concerns Influenza A virus. Nature of the test: Protection against Influenza A virus (A/California/07/2009 (H1NI)) harboring NA H275Y mutant infected in Balb/c mouse at 4.2 to 8.4 uM/kg, IV administered once daily for 7 days starting from 24 hrs prior to viral infection. In kind it is functional, A/California/07/2009(H1N1). Particulars: dose 4.2-8.4 µM/Kg.
Test [6] is described as follows: Inhibition of Influenza A virus (A/Moscow/10/99 (H3N2)) neuraminidase N2 E119V variant using MUNANA as substrate preincubated for 30 mins followed by substrate addition by fluorescence method.

The source made the active and inactive calls. No cut-off for these calls is given here.

The term EC50 denotes the midpoint of the concentration-response curve. For orientation: IC50 means the concentration that inhibits the measured activity by half. On to `CC(=O)N[C@H]1[C@H]([C@H](OC(=O)NCCOCCOCCOCCOCCOCCOCc2cn(CCCCCCO[C@H]3CC[C@@]4(C)C(=CC[C@H]5[C@@H]6CC[C@H]([C@H](C)CCCC(C)C)[C@@]6(C)CC[C@@H]54)C3)nn2)[C@H](O)CO)OC(C(=O)O)=C[C@@H]1NC(=N)N`, for which the EC50 was found to be 22 nM in test [1] and 0.422 µM in test [3] (read-out: EC50). For the same molecule, the Activity in test [2] (time 7 day, at 8.4 µmol/kg) is on record as 100%; in test [5] (time 7 day, at 4.2 to 8.4 µmol/kg), 100%. For the same molecule, the 50% inhibitory concentration (IC50) in test [4] is 22 nM; in test [6], 162 nM.

As for `CCCCCCn1cc(COCCOCCOCCOCCOCCOCCNC(=O)O[C@@H]([C@@H]2OC(C(=O)O)=C[C@H](NC(=N)N)[C@H]2NC(C)=O)[C@H](O)CO)nn1`, the figures for the EC50 in test [1] and in test [3] (read-out: EC50) were 612 nM and 4.73 µM, respectively. The IC50 in test [4] worked out at 30.3 nM; in test [6], 296 nM.

For the molecule `CC(=O)N[C@H]1[C@H]([C@H](O)[C@H](O)CO)OC(C(=O)O)=C[C@@H]1NC(=N)N` [ZANAMIVIR], the figures for the 50% effective concentration (EC50) in test [1] and in test [3] were 26.6 nM and 5.24 µM, respectively. The IC50 in test [4] is 1 nM; in test [6], 10 nM.

`CCC(CC)O[C@@H]1C=C(C(=O)O)C[C@H](N)[C@H]1NC(C)=O` [OSELTAMIVIR CARBOXYLATE]: the EC50 was found to be 2610 nM in test [1] and 30.2 µM in test [3] (read-out: EC50). The Activity result is “inactive” in test [2] (A/Puerto Rico/8/1934(H1N1), time 7.0 day) and “inactive” in test [5] (A/California/07/2009(H1N1), time 7.0 day). For the same molecule, the IC50 in test [4] was 938 nM; in test [6] it was 22.4 nM.

Turning to `CC(=O)N[C@H]1[C@H]([C@H](OC(=O)NCCOCCOCCOCCOCCOCCOCCOCCOCCOCCOCCOCCOCc2cn(CCCCCCO[C@H]3CC[C@@]4(C)C(=CC[C@H]5[C@@H]6CC[C@H]([C@H](C)CCCC(C)C)[C@@]6(C)CC[C@@H]54)C3)nn2)[C@H](O)CO)OC(C(=O)O)=C[C@@H]1NC(=N)N`, the EC50 in test [1] was found to be 2600 nM; in test [3] (read-out: EC50), 8.26 µM. Besides, the half-maximal inhibitory concentration (IC50) in test [4] turned out to be 573 nM; in test [6], 8580 nM.

For `CC(=O)N[C@H]1[C@H]([C@H](OC(=O)NCCOCCOCCOCc2cn(CCCCCCO[C@H]3CC[C@@]4(C)C(=CC[C@H]5[C@@H]6CC[C@H]([C@H](C)CCCC(C)C)[C@@]6(C)CC[C@@H]54)C3)nn2)[C@H](O)CO)OC(C(=O)O)=C[C@@H]1NC(=N)N`, the concentration for a half-maximal effect (EC50) came to 653 nM in test [1] and 4.81 µM in test [3] (read-out: EC50). In addition, the concentration for half-maximal inhibition (IC50) in test [4] stood at 127 nM; in test [6] it was 773 nM.
